According to US7923563B2, “Amorphous object of cinnamide compound” (Eisai R&D Management Co., Ltd., priority 2004, dated 2011):

Experiments:
[1] = Hygroscopicity test of the amorphous compound (1) (microbalance, weight change vs relative humidity); type: physicochemical; details: 25° C., relative humidities of 5% to 90%; FIG. 3
Experimental: The hygroscopicity of the amorphous substance was evaluated using a microbalance (MB300W, VTI Corporation, USA). A sample placed in a glass holder was suspended in a device adjusted at 25° C., and a change in the weight thereof was followed over relative humidities of 5% to 90%. The sample weight was measured at measuring points (of the relative humidities) with an interval of 2 minutes; the weight at the time point of the amount of change reaching within 0.2% was defined as the final value.

[2] = Solubility test of the crystalline compound (1) and the amorphous compound (1) (apparent solubility in buffer, HPLC); type: physicochemical; details: room temperature, 30 minutes standing after ultrasonication
Experimental: An excess amount of each sample was added to 0.5 mL of the following each test solution, which was then dispersed and dissolved by a ultrasonication operation for several minutes (about 3 minutes). After allowing to stand at room temperature for 30 minutes, the supernatant was separated by a centrifugation operation; the sample concentration in the supernatant as determined by an HPLC method was defined as an apparent solubility in each test solution.
pH 5: Diluted Mcllvaine buffer solution (Kanto Chemical Co. Inc.)
pH 7: GIBCO™ (Dulbecco's phosphate-buffered saline, Invitrogen Corporation)

[3] = pH 5 buffer (diluted McIlvaine buffer solution)
[4] = pH 7 buffer (Dulbecco's phosphate-buffered saline)

| Hygroscopicity (weight change over relative humidity) [1] | Apparent solubilites [2, 3] | Apparent solubilites [2, 4] | SMILES |
| --- | --- | --- | --- |
| low hygroscopicity | 0.225 mg/mL | 0.011 mg/mL | COc1cc(/C=C2\CCCN([C@@H](C)c3ccc(F)cc3)C2=O)ccc1-n1cnc(C)c1 [Amorphous compound (1), (3E)-1-[(1S)-1-(4-fluorophenyl)ethyl]-3-[3-methoxy-4-(4-methyl-1H-imidazol-1-yl)benzylidene]piperidin-2-one] |
|  | 0.077 mg/mL | 0.003 mg/mL | COc1cc(/C=C2\CCCN([C@@H](C)c3ccc(F)cc3)C2=O)ccc1-n1cnc(C)c1 [Crystalline compound (1), (3E)-1-[(1S)-1-(4-fluorophenyl)ethyl]-3-[3-methoxy-4-(4-methyl-1H-imidazol-1-yl)benzylidene]piperidin-2-one] |
